Reference: paper PMC5655141, “Allosteric fine-tuning of the conformational equilibrium poises the chaperone BiP for post-translational regulation” (eLife, 2017)
pKd: −log10 of the molar value.

Assays:
Assay in all cases: ITC
Format in all cases: binding
[1] = target: T1, AMPylated BiP* FL (Cricetulus griseus, UniProt G3I8R9, T229G/V461F)
T1 construct: gene HSPA5; T229G
From the text: ITC on AMPylated BiP* FL | nucleotide (ATP or ADP) binding to non-AMPylated and AMPylated V461F BiP* measured by ITC

[2] = target: T2, BiP* FL (full-length T229G BiP, BiP(1-641)) (Cricetulus griseus, UniProt G3I8R9, T229G/V461F)
T2 construct: gene HSPA5; full-length two-domain BiP, residues 1-641 as printed, non-cleavable N-terminal 6xHis tag, pET28a, E. coli BL21(DE3); ATPase-deficient T229G; non-AMPylated
T2 sequence (G3I8R9 1-641 T229G/V461F): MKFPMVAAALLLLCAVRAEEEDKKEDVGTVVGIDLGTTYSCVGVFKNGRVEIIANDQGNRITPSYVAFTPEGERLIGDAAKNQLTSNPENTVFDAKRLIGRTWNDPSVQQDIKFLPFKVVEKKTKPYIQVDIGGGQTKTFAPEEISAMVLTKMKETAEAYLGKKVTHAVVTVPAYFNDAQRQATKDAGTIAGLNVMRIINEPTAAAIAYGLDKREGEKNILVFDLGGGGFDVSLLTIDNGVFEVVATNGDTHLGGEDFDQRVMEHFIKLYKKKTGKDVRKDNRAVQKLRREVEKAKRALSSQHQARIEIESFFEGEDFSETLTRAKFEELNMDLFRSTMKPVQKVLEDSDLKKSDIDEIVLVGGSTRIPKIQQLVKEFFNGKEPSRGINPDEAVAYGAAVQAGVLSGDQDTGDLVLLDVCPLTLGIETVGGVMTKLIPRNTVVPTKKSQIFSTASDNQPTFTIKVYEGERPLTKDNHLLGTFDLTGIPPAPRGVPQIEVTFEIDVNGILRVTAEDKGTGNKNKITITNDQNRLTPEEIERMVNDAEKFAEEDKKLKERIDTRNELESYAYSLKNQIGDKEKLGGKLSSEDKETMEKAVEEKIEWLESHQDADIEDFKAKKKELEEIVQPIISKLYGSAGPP
From the text: ITC on BiP* FL (full-length T229G BiP, BiP(1-641)) | ATP and ADP binding obtained from ITC experiments for FL BiP*

[3] = target: T3, BiP* FL (full-length T229G BiP, BiP(1-641)) (Cricetulus griseus, UniProt G3I8R9, T229G)
T3 construct: gene HSPA5; full-length two-domain BiP, residues 1-641 as printed, non-cleavable N-terminal 6xHis tag, pET28a, E. coli BL21(DE3); ATPase-deficient T229G; non-AMPylated
T3 sequence (G3I8R9 1-641 T229G): as the sequence (G3I8R9 1-641 T229G/V461F) above, with F461V counted along it
From the text: ITC on BiP* FL (full-length T229G BiP, BiP(1-641))

[4] = target: T4, BiP* NBD(1-417) (Cricetulus griseus, UniProt G3I8R9, T229G)
T4 construct: gene HSPA5; T229G
T4 sequence (G3I8R9 1-417 T229G): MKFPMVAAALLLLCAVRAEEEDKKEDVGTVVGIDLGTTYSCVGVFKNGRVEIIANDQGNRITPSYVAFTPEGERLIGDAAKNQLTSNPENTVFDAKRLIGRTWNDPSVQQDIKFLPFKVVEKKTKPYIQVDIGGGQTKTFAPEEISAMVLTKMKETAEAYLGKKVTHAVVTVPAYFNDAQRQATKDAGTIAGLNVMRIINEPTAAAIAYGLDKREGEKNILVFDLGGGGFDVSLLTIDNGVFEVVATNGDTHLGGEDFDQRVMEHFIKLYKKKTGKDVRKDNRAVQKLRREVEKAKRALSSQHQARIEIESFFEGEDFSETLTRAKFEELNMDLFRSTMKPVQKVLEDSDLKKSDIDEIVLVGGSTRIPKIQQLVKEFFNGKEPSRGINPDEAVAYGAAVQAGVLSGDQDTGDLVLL

[5] = target: T5, BiP* NBD(1-413) (Cricetulus griseus, UniProt G3I8R9, T229G)
T5 construct: gene HSPA5; T229G
T5 sequence (G3I8R9 1-413 T229G): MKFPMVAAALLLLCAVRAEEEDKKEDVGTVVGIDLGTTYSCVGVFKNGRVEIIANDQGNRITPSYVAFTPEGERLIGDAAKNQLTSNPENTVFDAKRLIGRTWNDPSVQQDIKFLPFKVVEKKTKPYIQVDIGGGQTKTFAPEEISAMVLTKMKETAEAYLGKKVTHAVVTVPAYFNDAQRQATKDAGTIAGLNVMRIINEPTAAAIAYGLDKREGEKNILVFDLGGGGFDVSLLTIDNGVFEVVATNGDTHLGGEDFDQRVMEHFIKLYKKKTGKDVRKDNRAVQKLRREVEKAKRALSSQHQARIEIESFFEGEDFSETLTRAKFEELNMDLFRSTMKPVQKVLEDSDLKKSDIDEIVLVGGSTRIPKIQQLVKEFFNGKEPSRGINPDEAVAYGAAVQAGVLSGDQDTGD

T1 sequence (G3I8R9 1-641 T229G/V461F): as the sequence (G3I8R9 1-641 T229G/V461F) above

| Compound | pKd [1] | pKd [2] | pKd [3] | pKd [4] | pKd [5] |
| --- | --- | --- | --- | --- | --- |
| Nc1ncnc2c1ncn2[C@@H]1O[C@H](COP(=O)(O)OP(=O)(O)OP(=O)(O)O)[C@@H](O)[C@H]1O [ATP] | 7.15 | 6.68 |  |  |  |
| Nc1ncnc2c1ncn2[C@@H]1O[C@H](COP(=O)(O)OP(=O)(O)O)[C@@H](O)[C@H]1O [ADP] | 5.63 | 5.35 | 5.24 | 5.40 | 5.28 |
